Experimental data published in ChEMBL document CHEMBL1201862, “PubChem BioAssay data set” (2004).
Active and inactive are the calls of the source.

Tests used:
[1] = Luminescence Cell-Based Dose Retest to Confirm Inhibitors of Cancer Stem Cells. [Related pubchem assays (depositor defined):AID2717, AID2721]; format: functional; details: Homo sapiens
[2] = test system: Streptococcus sp. 'group A'; experiment: Streptococcus pyogenes SK(-)GAS viability under kanamycin – luminescence, BacTiterGlo, confirmation, counter-screen for streptokinase expression inhibitor project, dose response (AID 1900); format: functional, organism-based
[3] = Counterscreen for inhibitors of Trypanosoma brucei methionyl tRNA synthetase (MetRS): Luminescence-based cell-based high throughput dose response assay to identify compounds that are cytotoxic to Jurkat human T lymphocyte cells.; format: functional
[4] = test system: Streptococcus; experiment: GAS UMAA2166 growth inhibition – luminescence, BacTiterGlo, counter-screen for streptokinase expression inhibitor project, dose response (AID 1915); format: functional, organism-based;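 note: potency for reduction of bacterial viability or growth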
[5] = target: Large T antigen (Simian virus 40, UniProt P03070); format: functional, Betapolyomavirus macacae;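 note: Confirmatory-stage PubChem screen for compounds that inhibit SV40 T antigen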
Sequence of Large T antigen (P03070 whole entry): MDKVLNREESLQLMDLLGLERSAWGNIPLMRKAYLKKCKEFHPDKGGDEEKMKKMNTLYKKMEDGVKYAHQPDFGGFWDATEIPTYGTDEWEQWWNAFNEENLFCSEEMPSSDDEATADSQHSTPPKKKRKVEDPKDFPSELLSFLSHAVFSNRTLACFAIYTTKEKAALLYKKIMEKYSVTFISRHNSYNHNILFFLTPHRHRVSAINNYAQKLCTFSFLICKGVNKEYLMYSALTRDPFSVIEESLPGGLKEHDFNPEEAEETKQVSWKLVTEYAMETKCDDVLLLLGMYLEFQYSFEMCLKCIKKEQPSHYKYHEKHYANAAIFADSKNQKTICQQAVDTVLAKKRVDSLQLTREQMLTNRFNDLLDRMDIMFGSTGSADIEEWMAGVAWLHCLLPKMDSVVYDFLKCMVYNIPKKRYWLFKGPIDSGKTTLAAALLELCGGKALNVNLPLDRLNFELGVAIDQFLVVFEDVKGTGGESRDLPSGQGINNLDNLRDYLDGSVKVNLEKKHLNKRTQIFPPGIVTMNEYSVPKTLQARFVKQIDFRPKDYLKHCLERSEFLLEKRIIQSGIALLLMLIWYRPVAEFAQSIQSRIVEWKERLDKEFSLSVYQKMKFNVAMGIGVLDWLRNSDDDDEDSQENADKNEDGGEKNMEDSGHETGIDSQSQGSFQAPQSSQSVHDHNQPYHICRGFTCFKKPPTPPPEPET

[6] = target: Glucose-6-phosphate 1-dehydrogenase (Homo sapiens, UniProt P11413); experiment: inhibition of Homo sapiens G6PD, dose series – biochemical, fluorescence, selectivity assay for P. falciparum G6PD inhibitor project, dose response (AID 504792); format: functional
Sequence of Glucose-6-phosphate 1-dehydrogenase (P11413 whole entry): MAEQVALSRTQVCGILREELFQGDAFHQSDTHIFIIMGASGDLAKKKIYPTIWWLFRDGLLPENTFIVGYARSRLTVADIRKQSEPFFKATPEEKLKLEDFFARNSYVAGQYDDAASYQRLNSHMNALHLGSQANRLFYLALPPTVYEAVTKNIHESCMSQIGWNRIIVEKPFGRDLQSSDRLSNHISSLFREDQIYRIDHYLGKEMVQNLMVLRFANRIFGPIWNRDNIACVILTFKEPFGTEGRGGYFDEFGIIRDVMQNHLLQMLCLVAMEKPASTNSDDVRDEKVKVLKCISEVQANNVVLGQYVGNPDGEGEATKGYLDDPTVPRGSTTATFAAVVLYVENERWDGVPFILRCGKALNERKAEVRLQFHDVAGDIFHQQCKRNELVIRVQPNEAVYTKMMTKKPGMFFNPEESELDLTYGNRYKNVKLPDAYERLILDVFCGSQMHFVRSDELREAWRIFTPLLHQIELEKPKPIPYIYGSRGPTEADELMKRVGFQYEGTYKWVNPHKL

[7] = A cytotoxicity screen of small molecule inhibitors of the PhoP region in Salmonella typhi identified in the primary screen. [Related pubchem assays: 1850, 1864, 1985 ]; format: functional
[8] = target: DNA dC->dU-editing enzyme APOBEC-3G (Homo sapiens, UniProt Q9HC16); experiment: Dose Response confirmation of small molecule APOBEC3G DNA Deaminase Inhibitors via a fluorescence-based single-stranded DNA deaminase assay. [Related pubchem assays (depositor defined):AID493012, AID493028]; format: functional
Sequence of DNA dC->dU-editing enzyme APOBEC-3G (Q9HC16 whole entry): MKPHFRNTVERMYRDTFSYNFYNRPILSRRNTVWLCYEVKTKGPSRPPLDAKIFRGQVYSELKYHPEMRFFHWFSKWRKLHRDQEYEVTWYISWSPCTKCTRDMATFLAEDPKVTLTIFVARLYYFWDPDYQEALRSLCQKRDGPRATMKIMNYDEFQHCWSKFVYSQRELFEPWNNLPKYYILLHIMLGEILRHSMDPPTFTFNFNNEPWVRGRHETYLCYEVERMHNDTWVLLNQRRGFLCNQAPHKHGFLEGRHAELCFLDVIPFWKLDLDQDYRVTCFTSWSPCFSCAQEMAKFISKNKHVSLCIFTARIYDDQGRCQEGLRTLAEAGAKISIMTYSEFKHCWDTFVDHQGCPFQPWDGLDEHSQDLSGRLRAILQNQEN

[9] = target: DNA dC->dU-editing enzyme APOBEC-3A (Homo sapiens, UniProt P31941); experiment: A3A deaminase inhibition for selectivity – biochemical, dose response (AID 504722); format: functional
Sequence of DNA dC->dU-editing enzyme APOBEC-3A (P31941 whole entry): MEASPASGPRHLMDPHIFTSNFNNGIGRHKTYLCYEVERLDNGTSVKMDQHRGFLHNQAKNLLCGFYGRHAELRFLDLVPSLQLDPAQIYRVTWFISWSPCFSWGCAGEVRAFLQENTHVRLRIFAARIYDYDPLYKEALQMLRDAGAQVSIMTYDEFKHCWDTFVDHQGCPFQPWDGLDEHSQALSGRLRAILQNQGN

[10] = target: Glyceraldehyde-3-phosphate dehydrogenase (Homo sapiens, UniProt P04406)
Sequence of Glyceraldehyde-3-phosphate dehydrogenase (P04406 whole entry): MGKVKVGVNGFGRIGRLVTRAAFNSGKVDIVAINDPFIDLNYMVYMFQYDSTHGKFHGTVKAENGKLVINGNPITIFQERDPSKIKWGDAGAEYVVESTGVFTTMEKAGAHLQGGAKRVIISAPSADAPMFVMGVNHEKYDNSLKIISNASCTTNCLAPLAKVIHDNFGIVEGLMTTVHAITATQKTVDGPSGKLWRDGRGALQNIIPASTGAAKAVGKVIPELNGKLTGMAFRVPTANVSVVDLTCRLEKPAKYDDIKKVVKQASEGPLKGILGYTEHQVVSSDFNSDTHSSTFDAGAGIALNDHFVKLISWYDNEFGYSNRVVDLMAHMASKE

[11] = target: T1, Short transient receptor potential channel 4 (Mus musculus, UniProt Q9QUQ5); experiment: block of DAMGO-driven TRPC4 calcium entry – cell-based, HEK293 TRPC4/mu-opioid, Fluo-4 calcium, dose response (AID 434942); format: functional;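 note: potency of inhibitors blocking the TRPC4 calcium response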
T1 sequence (Q9QUQ5 whole entry): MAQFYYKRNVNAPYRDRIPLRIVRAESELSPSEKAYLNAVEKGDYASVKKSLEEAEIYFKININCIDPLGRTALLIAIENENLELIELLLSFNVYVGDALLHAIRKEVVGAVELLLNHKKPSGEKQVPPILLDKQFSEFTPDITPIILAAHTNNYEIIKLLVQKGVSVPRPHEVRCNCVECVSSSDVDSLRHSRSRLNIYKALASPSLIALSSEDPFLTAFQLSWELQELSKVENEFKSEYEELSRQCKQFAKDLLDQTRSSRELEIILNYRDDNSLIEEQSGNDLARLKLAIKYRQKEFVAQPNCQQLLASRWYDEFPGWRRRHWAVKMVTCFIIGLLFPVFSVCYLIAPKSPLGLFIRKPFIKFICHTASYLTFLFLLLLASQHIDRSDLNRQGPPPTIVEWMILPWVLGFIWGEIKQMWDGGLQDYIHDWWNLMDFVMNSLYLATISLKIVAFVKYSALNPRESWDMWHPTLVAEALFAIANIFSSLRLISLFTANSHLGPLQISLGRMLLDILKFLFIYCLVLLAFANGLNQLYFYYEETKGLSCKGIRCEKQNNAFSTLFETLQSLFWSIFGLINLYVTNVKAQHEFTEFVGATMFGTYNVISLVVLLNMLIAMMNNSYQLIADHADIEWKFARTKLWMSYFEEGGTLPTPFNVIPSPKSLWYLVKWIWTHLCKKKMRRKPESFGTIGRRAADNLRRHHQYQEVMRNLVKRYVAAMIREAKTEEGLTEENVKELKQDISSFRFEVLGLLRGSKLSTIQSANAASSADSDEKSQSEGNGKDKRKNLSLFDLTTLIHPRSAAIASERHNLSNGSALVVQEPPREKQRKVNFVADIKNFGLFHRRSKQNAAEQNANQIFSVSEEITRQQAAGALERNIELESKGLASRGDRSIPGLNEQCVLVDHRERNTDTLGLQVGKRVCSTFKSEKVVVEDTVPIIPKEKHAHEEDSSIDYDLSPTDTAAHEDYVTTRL

[12] = test system: INS1; experiment: INS-1E survival protection against cytokine death – cell-based, luminescence, retest, dose response (AID 449756); format: functional; details: Rattus norvegicus;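 note: cell death triggered by IL-1 beta plus TNF-alpha plus IFN-gamma mixture; protective hits raise ATP signal compared with cytokine alone wells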
[13] = test system: Vero; experiment: cells; format: functional, cell-based; details: Chlorocebus sabaeus
[14] = viability of uninfected HEp-2 cells – cell-based, HTS, cytotoxicity control for RSV inhibitor project, dose response (AID 2410); format: functional; details: human respiratory syncytial virus
[15] = cells
[16] = test system: Vero; experiment: cells; format: functional; details: Chlorocebus sabaeus
[17] = target: T2, Sentrin-specific protease 8 (Homo sapiens, UniProt Q96LD8); format: functional
T2 sequence (Q96LD8 whole entry): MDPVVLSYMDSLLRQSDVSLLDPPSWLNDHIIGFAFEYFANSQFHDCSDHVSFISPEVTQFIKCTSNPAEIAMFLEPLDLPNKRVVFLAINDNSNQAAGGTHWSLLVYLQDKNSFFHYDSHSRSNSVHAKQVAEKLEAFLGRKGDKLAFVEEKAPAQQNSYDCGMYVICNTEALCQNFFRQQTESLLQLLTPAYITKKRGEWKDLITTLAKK

[18] = target: T2, Sentrin-specific protease 8; format: functional; remark: listed apart in the source
[19] = DRD fibroblast viability loss – cell-based, non-viral oncogenic, luminescence, dose response (AID 1934); format: functional; details: Homo sapiens
[20] = test system: BJ; experiment: cells; format: functional, cell-based; details: Homo sapiens
[21] = test system: BJ; experiment: growth inhibition of engineered Ras-driven BJ cells – cell-based, alamar blue fluorescence, cherrypicked samples, dose response (AID 2631); format: functional; details: Homo sapiens;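 note: confirmatory dose-response assay in RAS-dependent BJ fibroblasts engineered with TERT, LT and ST, with cytotoxicity read by fluorescence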
[22] = target: T3, Ubiquitin-conjugating enzyme E2 N (Homo sapiens, UniProt P61088); format: functional;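 note: Dose-response confirmation in a TR-FRET assay detecting UBC13-driven polyubiquitin chain formation, inhibition measured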
T3 sequence (P61088 whole entry): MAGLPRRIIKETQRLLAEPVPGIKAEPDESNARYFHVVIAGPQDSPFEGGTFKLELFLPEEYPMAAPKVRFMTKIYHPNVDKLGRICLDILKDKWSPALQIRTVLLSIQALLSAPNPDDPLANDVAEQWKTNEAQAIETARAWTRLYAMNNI

[23] = test system: BJ; experiment: BJ-TERT fibroblast viability loss – cell-based, RAS-independent, luminescence, dose response (AID 1933); format: functional; details: Homo sapiens
[24] = test system: BJ; experiment: BJ-TERT-LT-ST fibroblast viability loss – cell-based, RAS-independent, luminescence, dose response (AID 1935); format: functional; details: Homo sapiens;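 note: BJ fibroblasts immortalized with TERT plus LT and ST oncogenes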
[25] = target: T4, DNA repair and recombination protein RAD54-like (Homo sapiens, UniProt Q92698); experiment: RAD54 Holliday junction migration blockers – biochemical, fluorescence, cherry-picked samples, dose series, confirmation (AID 651657); format: functional
T4 sequence (Q92698 whole entry): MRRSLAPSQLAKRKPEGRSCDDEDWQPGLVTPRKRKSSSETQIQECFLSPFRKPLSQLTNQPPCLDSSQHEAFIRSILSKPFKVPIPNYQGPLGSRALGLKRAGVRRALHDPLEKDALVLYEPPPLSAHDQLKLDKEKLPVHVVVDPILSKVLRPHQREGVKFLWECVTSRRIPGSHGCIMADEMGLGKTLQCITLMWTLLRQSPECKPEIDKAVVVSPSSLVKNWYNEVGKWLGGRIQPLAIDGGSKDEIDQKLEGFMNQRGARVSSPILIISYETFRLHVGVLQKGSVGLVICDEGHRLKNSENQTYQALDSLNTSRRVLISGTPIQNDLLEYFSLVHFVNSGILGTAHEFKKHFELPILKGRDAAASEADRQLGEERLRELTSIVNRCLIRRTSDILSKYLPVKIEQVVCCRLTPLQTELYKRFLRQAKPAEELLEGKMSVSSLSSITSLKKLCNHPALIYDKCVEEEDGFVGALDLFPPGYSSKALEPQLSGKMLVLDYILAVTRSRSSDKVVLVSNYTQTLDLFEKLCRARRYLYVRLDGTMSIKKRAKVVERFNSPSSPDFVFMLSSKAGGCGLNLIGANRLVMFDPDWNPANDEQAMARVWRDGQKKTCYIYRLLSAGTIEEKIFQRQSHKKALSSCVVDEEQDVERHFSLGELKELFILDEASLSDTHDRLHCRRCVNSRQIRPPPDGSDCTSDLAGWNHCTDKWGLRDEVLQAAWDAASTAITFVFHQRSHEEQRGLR

[26] = target: T5, DNA repair protein RAD52 homolog (Homo sapiens, UniProt P43351); format: functional, biochemical
T5 sequence (P43351 whole entry): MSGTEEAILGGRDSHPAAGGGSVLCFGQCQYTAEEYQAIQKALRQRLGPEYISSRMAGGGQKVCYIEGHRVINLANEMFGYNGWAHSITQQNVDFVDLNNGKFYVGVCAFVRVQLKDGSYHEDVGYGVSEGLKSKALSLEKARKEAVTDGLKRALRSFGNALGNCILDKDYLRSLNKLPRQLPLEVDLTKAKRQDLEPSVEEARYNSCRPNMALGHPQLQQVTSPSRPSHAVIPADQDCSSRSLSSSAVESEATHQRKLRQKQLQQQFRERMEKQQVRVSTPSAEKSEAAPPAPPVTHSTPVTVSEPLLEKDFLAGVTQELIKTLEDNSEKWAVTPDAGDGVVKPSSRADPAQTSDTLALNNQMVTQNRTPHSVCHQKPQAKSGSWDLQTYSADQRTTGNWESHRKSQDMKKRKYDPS

[27] = target: T6, Polyadenylate-binding protein 1 (Homo sapiens, UniProt P11940); experiment: MLLE domain peptide-binding blockers, IC50 – biochemical, fluorescence polarization, FITC-PAM2 peptide, dose response (AID 602259); format: functional; details: read-out: IC50_Mean
T6 sequence (P11940 whole entry, the tested form may be a part): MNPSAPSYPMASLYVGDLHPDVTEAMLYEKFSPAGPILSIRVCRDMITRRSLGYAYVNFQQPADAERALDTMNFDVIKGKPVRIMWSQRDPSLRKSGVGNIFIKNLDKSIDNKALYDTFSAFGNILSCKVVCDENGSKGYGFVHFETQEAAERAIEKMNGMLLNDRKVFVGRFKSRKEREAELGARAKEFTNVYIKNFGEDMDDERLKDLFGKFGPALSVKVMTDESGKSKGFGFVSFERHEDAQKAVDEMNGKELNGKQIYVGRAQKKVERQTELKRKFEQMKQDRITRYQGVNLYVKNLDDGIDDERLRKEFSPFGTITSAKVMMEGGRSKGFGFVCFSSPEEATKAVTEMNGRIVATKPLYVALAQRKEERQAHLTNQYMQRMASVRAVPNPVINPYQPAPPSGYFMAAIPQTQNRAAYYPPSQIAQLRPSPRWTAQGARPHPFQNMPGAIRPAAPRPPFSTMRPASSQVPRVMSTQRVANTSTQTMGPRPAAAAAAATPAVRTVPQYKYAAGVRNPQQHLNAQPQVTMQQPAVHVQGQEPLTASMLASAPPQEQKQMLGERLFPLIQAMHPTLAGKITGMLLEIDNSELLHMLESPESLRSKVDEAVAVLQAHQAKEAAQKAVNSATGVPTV

[28] = target: T6, Polyadenylate-binding protein 1; experiment: MLLE binding blockers, Cy5 peptide tracer – biochemical, fluorescence polarization, Cy5-PAM2 peptide, secondary, miRNA deadenylation inhibitor project, dose response (AID 602260); format: functional; details: read-out: IC50_Mean
[29] = target: Genome polyprotein (dengue virus type 2, UniProt P29990); experiment: flavivirus cap methylation enzyme inhibition – biochemical, confirmation dose response, primary screen (AID 588689); format: functional
Sequence of Genome polyprotein (P29990 2492-3391 limits assumed): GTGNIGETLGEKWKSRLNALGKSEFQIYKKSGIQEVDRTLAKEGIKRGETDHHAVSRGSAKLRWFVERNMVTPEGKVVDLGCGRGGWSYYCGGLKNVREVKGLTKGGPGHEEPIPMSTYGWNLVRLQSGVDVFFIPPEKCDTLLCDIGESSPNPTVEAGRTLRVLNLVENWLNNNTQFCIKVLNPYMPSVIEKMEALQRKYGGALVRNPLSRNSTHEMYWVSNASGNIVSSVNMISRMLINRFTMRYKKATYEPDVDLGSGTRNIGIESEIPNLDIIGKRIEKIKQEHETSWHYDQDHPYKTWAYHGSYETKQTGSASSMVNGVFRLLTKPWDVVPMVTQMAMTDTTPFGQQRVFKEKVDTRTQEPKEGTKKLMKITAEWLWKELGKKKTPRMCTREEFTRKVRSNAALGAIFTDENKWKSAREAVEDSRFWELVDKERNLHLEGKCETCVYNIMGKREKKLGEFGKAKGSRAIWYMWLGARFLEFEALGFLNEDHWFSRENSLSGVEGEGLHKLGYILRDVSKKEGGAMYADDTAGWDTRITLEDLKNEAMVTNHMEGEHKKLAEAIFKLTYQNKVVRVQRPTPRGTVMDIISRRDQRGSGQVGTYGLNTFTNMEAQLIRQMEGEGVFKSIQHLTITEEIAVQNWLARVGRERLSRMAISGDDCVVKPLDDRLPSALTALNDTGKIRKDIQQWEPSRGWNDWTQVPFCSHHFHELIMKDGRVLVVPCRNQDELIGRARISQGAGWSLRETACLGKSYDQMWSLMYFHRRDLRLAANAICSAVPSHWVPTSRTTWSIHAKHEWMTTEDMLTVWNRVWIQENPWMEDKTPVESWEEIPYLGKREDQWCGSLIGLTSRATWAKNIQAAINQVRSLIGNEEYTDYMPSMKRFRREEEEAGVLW

CC(CNC(S)=Nc1cc(F)cc(F)c1)CSc1ccc(Cl)cc1 (stereo not given)
AC50 [1]: 6.24 µM (active)
EC50 [2]: 8.3 µM (active)
IC50 [3]: 27.8 µM (inactive)
EC50 [4]: 36 µM (active)

COc1ccc(N2CSC3=C(C#N)C(c4ccc(OC)c(OC)c4)CC(=O)N3C2)c(OC)c1 (stereo not given)
IC50 [5]: 52.7 µM (active)
IC50 [6]: > 80 µM (inactive)

Cc1cc(C)c(CSc2ncnc3[nH]cnc23)c(C)c1
EC50 [7]: > 50 µM (active)

N#CC1=C2SCN(c3ccccc3)CN2C(=O)CC1c1cccs1 (stereo not given)
IC50 [8]: 7.25 µM (active)
IC50 [9]: > 100 µM (inactive)

O=C(O)c1cc(N2C(=O)C3C4c5ccccc5C(c5ccccc54)C3C2=O)ccc1O (stereo not given)
IC50 [10]: > 100 µM (not active)

Brc1ccccc1CN1CCN(Cc2c[nH]c3ccccc23)CC1
EC50 [11]: 0.0747 µM (active)
AC50 [12]: 2.16 µM (active)

CCOC(=O)C1=NN(c2ccccc2C)C2=NC(C)=C(C(=O)OC)C(c3cccc(OC)c3)N12 (stereo not given)
EC50 [11]: 2.99 µM (active)

COc1ccc(N(CC(=O)N2c3ccccc3CC2C)S(=O)(=O)c2c(C)noc2C)cc1 (stereo not given)
EC50 [7]: > 50 µM (active)

CC(=O)/C(C#N)=C1\NC(=O)C(Cc2ccccc2C)S1 (stereo not given)
IC50 [13]: 5.5 µM (active)
CC50 [14]: 5.95 µM (active)
IC50 [15]: 2.54 µM (active)
CC50 [16]: > 25 µM (active)

O=C(CN1C(=O)CSC1=O)N1CCc2ccccc2C1
IC50 [17]: 80.8 µM (inactive)
IC50 [18]: 10.6 µM (active)

O=C(CCCCCN1C(=O)c2cccc3cccc(c23)C1=O)NCc1cccnc1
EC50 [19]: > 150 µM (not active)
EC50 [20]: 3.59 µM (inconclusive)
EC50 [21]: > 66.7 µM (inactive)
IC50 [22]: > 20 µM (inactive)
EC50 [23]: > 150 µM (not active)
EC50 [24]: > 150 µM (inconclusive)

CCS(=O)(=O)N1CCC(C(=O)N2CCc3ccccc3C2)CC1
IC50 [17]: > 100 µM (inactive)
IC50 [18]: 8.89 µM (active)

CCn1c(-c2cccc(Cl)c2)n[nH]c1=S
IC50 [8]: 6.09 µM (active)
IC50 [9]: > 100 µM (inactive)

COc1cccc(NC(=O)N2CCCC(C(=O)Nc3ccccc3OC)C2)c1 (stereo not given)
EC50 [7]: > 50 µM (active)

Cc1cnc(C(=O)Nc2c(-c3ccccc3)[nH][nH]c2=O)cn1
IC50 [17]: 20.3 µM (active)
IC50 [18]: 30.3 µM (active)

Cn1c(C(=O)NCc2ccccc2)cc2oc3ccccc3c21
IC50 [13]: 1.87 µM (active)
CC50 [14]: 28.9 µM (active)
IC50 [15]: 7.04 µM (active)
CC50 [16]: > 25 µM (active)

CCOC(=O)Nc1c2ccccc2nc2ccccc12
AC50 [25]: 54.8 µM (active)

CCN1CCN(c2cc(C)c3cc(NC(S)=NCCCN4CCc5ccccc5C4)ccc3n2)CC1
AC50 [25]: 20.6 µM (active)
AC50 [26]: 3 µM (active)

Sc1nnc(-c2cccnc2)n1/N=C/c1ccccc1
IC50 [8]: 2.02 µM (active)
IC50 [9]: > 100 µM (inactive)

COc1ccc(OC)c(Nc2nc(NCCCN(C)C)nc(N)c2[N+](=O)[O-])c1
AC50 [25]: 20.2 µM (active)
AC50 [26]: 7.02 µM (active)

Cc1ccc(-c2n[nH]c(=S)n2C)cc1Cl
IC50 [8]: 4.34 µM (active)
IC50 [9]: > 100 µM (inactive)

Oc1cc(-n2cccn2)c(O)cc1-n1cccn1
IC50 [6]: 33 µM (inactive)
IC50 [27]: > 66 µM (inactive)
IC50 [28]: > 66 µM (inactive)
IC50 [29]: 79.2 µM (active)
